Earlier results in patent publication US4177199A, “Silver salts of phosphanilic acid” (Bristol-Myers Company, priority 1978, dated 1979).

What was measured:
Histoplasma capsulatum = settings: mouse, in vivo, iv
[1] = tested on: experimental tuberculosis
Ps. fluorescens = settings: mice infected with Ps. fluorescens
Plasmodium berghei = settings: mice infected with Plasmodium berghei
[2] = laboratory animals
S. typhosa = settings: mice infected with S. typhosa
[3] = laboratory animals; remark: listed apart in the source
[4] = by admixture or salt formation
[5] = tested on: a variety of bacterial species

## Nc1ccc(P(=O)(O)O)cc1 [phosphanilic acid]
Histoplasma capsulatum
  protective effect against Histoplasma capsulatum infection: some protective effect
tuberculosis
  tubercularstatic activity in vitro: good
[1]
  effect in vivo against experimental tuberculosis: no effect
Ps. fluorescens
  efficacy in vivo in infected mice: effective
Plasmodium berghei
  efficacy in vivo in infected mice: effective
[2]
  toxicity: low
S. typhosa
  efficacy in vivo in infected mice: effective
[3]
  absorption: poor
[4]
  potentiation of various tetracycline antibiotics: potentiation
[5]; aromatic phosphonic and phosphinic acids
  in vitro activity among compounds tested: generally the most active of the compounds tested
[5]; molar basis
  activity compared with sulfathiazole: approached that of sulfathiazole
